Tests used:
[1] = system: diamondback moth larvae; assay: Leaf dip efficacy and synergy test, diamondback moth larvae; format: in vivo; details: Plutella xylostella, foliar, Bta/Btk 0.8125 ppm, flubendiamide 0.215 ppm, alone or in mixture
Source text: The following examples were used to determine the synergy of Bacillus thuringiensis subsp. aizawai, Bacillus thuringiensis subsp. kurstaki and flubendiamide when controlling diamondback moth, beet armyworm, sugarcane borer, soybean looper, corn earworm, cabbage looper, and southwestern corn borer. Sympatico™ emulsifiable suspension (available from Valent BioSciences LLC) was used as the source of Bacillus thuringiensis subsp. aizawai and Bacillus thuringiensis kurstaki. Sympatico™ contains about a 1:0.67 ratio of Bacillus thuringiensis subsp. kurstaki fermentation solids, spores and toxins to Bacillus thuringiensis subsp. aizawai fermentation solids, spores and toxins. Belt® was used as the source of flubendiamide. The present invention is not limited to the commercial products used in the examples. […]
For these tests, standardized laboratory leaf dip methods were used to inoculate plant material with treatment(s). […] Synergy ratings were calculated for each test. […]
In order to determine synergy, rates below normal field rate ranges must be used. If normal field rate ranges are used, all of the larvae would die (combining a lethal or near lethal dose of Bacillus thuringiensis subsp. aizawai and Bacillus thuringiensis subsp. kurstaki with a lethal dose of flubendiamide would most likely lead to larvae death) in every treatment and synergy would not be able to be determined. […]

[2] = system: beet armyworm larvae; assay: Leaf dip efficacy and synergy test, beet armyworm larvae; format: in vivo; details: Spodoptera exigua, foliar, Bta/Btk 0.8125 ppm, flubendiamide 0.49 ppm, alone or in mixture
Source text: (§1) The following examples were used to determine the synergy of Bacillus thuringiensis subsp. aizawai, Bacillus thuringiensis subsp. kurstaki and flubendiamide when controlling diamondback moth, beet armyworm, sugarcane borer, soybean looper, corn earworm, cabbage looper, and southwestern corn borer. Sympatico™ emulsifiable suspension (available from Valent BioSciences LLC) was used as the source of Bacillus thuringiensis subsp. aizawai and Bacillus thuringiensis kurstaki. Sympatico™ contains about a 1:0.67 ratio of Bacillus thuringiensis subsp. kurstaki fermentation solids, spores and toxins to Bacillus thuringiensis subsp. aizawai fermentation solids, spores and toxins. Belt® was used as the source of flubendiamide. The present invention is not limited to the commercial products used in the examples. In each example below, the studies were conducted as follows.
(§2) For these tests, standardized laboratory leaf dip methods were used to inoculate plant material with treatment(s). Dry, treated leaves were placed into Petri dishes (100×25 mm) containing filter paper wetted with 500 μl of distilled H2O (“dH2O”). Each dish was then infested with between 5 and 10 larvae, dependent on species. Efficacy ratings were taken at specified intervals. Synergy ratings were calculated for each test. […]

[3] = system: cabbage looper larvae; assay: Leaf dip efficacy and synergy test, cabbage looper larvae; format: in vivo; details: Trichoplusia ni, foliar, Bta/Btk 0.8125 ppm, flubendiamide 0.49 ppm, alone or in mixture
Source text: as §1, §2

[4] = system: sugarcane borer larvae; assay: Leaf dip efficacy and synergy test, sugarcane borer larvae; format: in vivo; details: Diatraea saccharalis, foliar, Bta/Btk 0.8125 ppm, flubendiamide 2.15 ppm, alone or in mixture
Source text: as §1, §2

[5] = system: southwestern corn borer larvae; assay: Leaf dip efficacy and synergy test, southwestern corn borer larvae; format: in vivo; details: foliar, Bta/Btk 0.8125 ppm, flubendiamide 0.39 ppm, alone or in mixture
Source text: as §1, §2

[6] = system: soybean looper larvae; assay: Leaf dip efficacy and synergy test, soybean looper larvae; format: in vivo, Chrysodeixis includens; details: foliar, Bta/Btk 0.26 ppm, flubendiamide 3.9 ppm, alone or in mixture
Source text: as §1, §2

[7] = system: corn earworm larvae; assay: Leaf dip efficacy and synergy test, corn earworm larvae; format: in vivo; details: Helicoverpa zea, foliar, Bta/Btk 2.6 ppm, flubendiamide 0.975 ppm, alone or in mixture
Source text: as §1, §2

Cc1cc(C(F)(C(F)(F)F)C(F)(F)F)ccc1NC(=O)c1cccc(I)c1C(=O)NC(C)(C)CS(C)(=O)=O [Flubendiamide, 3-iodo-N′-(2-mesyl-1,1-dimethylethyl)-N-{4-[1,2,2,2-tetrafluoro-1-(trifluoromethyl)ethyl]-o-tolyl}phthalamide]
Emax at 0.215 ppm ([1]; 24 h after treatment): 4% | Emax at 0.215 ppm ([1]; 48 h after treatment): 42% | Emax at 0.49 ppm ([2]; 24 h after treatment): 10% | Emax at 0.49 ppm ([2]; 48 h after treatment): 23% | Emax at 0.49 ppm ([3]; 24 h after treatment): 9% | Emax at 0.49 ppm ([3]; 48 h after treatment): 65% | Emax at 2.15 ppm ([4]; 24 h after treatment): 24% | Emax at 2.15 ppm ([4]; 48 h after treatment): 33% | Emax at 0.39 ppm ([5]; 24 h after treatment): 49% | Emax at 0.39 ppm ([5]; 48 h after treatment): 51% | Emax at 3.9 ppm ([6]; 24 h after treatment): 13% | Emax at 3.9 ppm ([6]; 48 h after treatment): 38% | Emax at 0.975 ppm ([7]; 24 h after treatment): 33% | Emax at 0.975 ppm ([7]; 48 h after treatment): 33%

From patent US20170311607A1, “SYNERGISTIC BACILLUS THURINGIENSIS SUBSP. AIZAWAI, BACILLUS THURINGIENSIS SUBSP. KURSTAKI AND FLUBENDIAMIDE MIXTURES FOR DIAMONDBACK MOTH, SUGARCANE BORER, SOYBEAN LOOPER, AND CORN EARWORM” (Valent BioSciences LLC, priority 2016, published 2017)
